Experimental data published in ChEMBL document CHEMBL5465560, “Selectivity Literature for EUbOPEN Chemogenomic Library” (2024).
Values belong to the molecule of their own block, whether it stands above or below them.

What was measured:
[1] = molecular target: T1, 3-phosphoinositide-dependent protein kinase 1 (Homo sapiens) (UniProt O15530); assay: Selectivity interaction (KinomeScan (DiscoverX)) EUB0001049a PDPK1; details: at 1 µM
T1 sequence (whole entry): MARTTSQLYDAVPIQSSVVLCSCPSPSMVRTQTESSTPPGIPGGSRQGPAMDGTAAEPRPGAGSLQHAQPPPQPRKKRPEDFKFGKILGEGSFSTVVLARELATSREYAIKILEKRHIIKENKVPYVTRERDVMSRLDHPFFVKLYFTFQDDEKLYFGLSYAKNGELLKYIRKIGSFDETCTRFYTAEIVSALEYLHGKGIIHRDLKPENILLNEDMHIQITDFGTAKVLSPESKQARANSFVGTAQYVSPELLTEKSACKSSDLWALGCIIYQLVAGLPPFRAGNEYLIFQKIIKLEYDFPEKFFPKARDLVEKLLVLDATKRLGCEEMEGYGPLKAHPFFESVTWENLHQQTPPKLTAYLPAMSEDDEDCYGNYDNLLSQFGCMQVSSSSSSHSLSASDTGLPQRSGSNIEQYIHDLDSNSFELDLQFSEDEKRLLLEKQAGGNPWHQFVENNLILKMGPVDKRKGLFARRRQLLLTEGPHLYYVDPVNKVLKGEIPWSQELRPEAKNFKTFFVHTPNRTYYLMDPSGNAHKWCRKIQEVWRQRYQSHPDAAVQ

[2] = molecular target: Cyclin-dependent kinase 18 (Homo sapiens) (UniProt Q07002); details: at 10 µM
Sequence of Cyclin-dependent kinase 18 (Homo sapiens) (Q07002 whole entry): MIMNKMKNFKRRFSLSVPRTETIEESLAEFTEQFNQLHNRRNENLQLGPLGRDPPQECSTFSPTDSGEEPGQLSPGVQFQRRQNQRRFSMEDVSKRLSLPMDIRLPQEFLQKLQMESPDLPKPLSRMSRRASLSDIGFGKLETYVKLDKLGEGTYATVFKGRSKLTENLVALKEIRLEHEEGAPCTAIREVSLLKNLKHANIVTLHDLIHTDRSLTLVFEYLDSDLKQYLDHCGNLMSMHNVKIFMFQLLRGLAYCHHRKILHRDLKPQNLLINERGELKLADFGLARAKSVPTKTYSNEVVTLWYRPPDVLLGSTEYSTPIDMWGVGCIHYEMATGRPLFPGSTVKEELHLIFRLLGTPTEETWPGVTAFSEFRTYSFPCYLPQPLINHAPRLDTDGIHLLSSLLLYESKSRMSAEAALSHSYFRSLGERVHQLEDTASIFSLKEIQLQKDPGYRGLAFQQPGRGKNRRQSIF

[3] = molecular target: T2, Bone morphogenetic protein receptor type-2 (Homo sapiens) (UniProt Q13873); assay: Selectivity interaction (KinomeScan (DiscoverX)) EUB0000595a BMPR2; details: at 10 µM
T2 sequence (whole entry): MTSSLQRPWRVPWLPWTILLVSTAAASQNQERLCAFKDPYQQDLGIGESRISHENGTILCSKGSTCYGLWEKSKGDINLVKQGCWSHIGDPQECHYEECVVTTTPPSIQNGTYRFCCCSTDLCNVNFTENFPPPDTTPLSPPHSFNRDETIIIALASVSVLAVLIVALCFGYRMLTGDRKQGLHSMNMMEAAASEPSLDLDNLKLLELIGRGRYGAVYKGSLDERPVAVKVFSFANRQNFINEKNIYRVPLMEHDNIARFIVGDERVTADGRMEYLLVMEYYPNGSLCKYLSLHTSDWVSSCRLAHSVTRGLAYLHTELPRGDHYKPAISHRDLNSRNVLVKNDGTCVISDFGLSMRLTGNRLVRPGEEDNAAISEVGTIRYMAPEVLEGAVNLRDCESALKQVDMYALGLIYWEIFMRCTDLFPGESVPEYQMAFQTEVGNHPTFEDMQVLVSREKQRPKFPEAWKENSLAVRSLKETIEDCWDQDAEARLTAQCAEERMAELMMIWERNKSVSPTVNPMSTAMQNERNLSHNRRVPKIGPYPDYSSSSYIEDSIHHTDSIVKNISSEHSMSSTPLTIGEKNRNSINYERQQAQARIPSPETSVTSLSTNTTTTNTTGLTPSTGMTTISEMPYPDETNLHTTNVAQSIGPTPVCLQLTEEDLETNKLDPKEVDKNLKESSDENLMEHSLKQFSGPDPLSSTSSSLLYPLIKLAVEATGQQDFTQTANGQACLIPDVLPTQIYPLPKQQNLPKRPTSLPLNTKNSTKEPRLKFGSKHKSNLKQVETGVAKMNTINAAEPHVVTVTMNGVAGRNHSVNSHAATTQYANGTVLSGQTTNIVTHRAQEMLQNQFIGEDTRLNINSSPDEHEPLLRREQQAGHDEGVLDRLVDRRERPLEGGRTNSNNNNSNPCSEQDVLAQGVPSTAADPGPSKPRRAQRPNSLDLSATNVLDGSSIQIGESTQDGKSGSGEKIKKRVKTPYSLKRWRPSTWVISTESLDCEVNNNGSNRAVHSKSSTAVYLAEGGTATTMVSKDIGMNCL

[4] = molecular target: Citron Rho-interacting kinase (Homo sapiens) (UniProt O14578); assay: Selectivity interaction (KinomeScan (DiscoverX)) EUB0000229b CIT; details: at 10 µM
Sequence of Citron Rho-interacting kinase (Homo sapiens) (O14578 whole entry): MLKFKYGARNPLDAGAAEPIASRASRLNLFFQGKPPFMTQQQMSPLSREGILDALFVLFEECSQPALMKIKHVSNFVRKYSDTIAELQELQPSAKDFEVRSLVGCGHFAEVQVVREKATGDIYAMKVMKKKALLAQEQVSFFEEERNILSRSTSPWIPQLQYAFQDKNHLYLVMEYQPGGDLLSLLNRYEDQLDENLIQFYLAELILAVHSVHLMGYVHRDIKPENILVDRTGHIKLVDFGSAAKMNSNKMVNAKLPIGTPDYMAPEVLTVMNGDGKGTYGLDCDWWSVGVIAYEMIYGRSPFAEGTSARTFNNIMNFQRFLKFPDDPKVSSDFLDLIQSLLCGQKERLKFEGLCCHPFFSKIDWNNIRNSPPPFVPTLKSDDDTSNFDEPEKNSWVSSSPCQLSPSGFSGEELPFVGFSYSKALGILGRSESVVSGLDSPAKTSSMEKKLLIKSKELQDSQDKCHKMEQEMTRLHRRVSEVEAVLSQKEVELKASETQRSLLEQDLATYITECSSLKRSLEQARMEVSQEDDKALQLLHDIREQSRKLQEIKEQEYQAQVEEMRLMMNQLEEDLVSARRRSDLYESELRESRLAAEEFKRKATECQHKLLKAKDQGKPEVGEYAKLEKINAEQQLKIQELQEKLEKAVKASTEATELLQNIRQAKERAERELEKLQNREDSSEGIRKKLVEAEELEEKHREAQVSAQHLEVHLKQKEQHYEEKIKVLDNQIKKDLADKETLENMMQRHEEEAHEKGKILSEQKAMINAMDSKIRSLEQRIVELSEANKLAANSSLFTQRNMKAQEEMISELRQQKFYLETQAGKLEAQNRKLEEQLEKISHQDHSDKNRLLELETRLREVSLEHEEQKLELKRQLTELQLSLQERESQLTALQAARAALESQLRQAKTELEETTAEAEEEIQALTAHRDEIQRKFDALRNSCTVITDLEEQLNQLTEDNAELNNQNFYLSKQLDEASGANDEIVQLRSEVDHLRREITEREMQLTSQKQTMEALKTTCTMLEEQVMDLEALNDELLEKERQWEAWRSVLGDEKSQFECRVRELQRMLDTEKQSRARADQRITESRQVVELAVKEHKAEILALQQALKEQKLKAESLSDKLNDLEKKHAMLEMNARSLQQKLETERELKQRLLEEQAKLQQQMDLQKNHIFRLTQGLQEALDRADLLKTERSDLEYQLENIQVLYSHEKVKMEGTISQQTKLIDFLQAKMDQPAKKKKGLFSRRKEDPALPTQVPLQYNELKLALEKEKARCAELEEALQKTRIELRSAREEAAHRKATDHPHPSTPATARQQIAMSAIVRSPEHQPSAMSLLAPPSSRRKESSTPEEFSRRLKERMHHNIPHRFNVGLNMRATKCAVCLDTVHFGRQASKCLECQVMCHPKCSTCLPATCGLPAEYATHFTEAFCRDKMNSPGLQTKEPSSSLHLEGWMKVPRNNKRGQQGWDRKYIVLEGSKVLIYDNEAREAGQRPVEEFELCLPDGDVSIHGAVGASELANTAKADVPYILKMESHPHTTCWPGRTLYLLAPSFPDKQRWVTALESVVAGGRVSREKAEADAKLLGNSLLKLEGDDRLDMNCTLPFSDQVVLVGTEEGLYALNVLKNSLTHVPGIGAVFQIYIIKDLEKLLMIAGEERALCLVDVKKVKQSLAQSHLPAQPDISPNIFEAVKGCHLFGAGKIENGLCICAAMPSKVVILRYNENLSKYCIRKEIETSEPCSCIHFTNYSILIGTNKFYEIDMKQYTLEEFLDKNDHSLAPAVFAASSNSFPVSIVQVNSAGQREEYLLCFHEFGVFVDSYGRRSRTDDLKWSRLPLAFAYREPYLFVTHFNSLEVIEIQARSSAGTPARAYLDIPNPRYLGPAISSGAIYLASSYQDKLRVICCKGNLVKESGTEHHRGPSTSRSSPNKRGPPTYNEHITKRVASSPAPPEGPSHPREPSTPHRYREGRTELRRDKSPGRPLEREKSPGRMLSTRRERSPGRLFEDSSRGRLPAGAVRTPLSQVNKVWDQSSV

[5] = molecular target: T3, Membrane-associated tyrosine- and threonine-specific cdc2-inhibitory kinase (Homo sapiens) (UniProt Q99640); assay: Selectivity interaction (KinomeScan (DiscoverX)) EUB0001079a PKMYT1; details: at 1 µM
T3 sequence (whole entry): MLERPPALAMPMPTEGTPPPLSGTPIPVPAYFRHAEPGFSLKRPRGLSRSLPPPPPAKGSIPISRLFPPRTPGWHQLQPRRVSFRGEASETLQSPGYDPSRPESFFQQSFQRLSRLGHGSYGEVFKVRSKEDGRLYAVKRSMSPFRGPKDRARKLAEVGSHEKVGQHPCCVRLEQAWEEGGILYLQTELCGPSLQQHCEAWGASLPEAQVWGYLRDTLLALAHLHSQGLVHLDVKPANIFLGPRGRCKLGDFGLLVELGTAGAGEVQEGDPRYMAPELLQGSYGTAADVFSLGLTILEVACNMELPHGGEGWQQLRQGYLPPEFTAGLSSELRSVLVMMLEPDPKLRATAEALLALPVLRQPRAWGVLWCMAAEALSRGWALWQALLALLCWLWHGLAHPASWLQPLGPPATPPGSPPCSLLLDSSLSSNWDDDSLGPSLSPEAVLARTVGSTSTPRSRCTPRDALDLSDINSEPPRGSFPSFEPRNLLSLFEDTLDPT

[6] = molecular target: Ephrin type-A receptor 7 (Homo sapiens) (UniProt Q15375); assay: Selectivity interaction (KinomeScan (DiscoverX)) EUB0000666a EPHA7; details: at 10 µM
Sequence of Ephrin type-A receptor 7 (Homo sapiens) (Q15375 28-998 limits assumed): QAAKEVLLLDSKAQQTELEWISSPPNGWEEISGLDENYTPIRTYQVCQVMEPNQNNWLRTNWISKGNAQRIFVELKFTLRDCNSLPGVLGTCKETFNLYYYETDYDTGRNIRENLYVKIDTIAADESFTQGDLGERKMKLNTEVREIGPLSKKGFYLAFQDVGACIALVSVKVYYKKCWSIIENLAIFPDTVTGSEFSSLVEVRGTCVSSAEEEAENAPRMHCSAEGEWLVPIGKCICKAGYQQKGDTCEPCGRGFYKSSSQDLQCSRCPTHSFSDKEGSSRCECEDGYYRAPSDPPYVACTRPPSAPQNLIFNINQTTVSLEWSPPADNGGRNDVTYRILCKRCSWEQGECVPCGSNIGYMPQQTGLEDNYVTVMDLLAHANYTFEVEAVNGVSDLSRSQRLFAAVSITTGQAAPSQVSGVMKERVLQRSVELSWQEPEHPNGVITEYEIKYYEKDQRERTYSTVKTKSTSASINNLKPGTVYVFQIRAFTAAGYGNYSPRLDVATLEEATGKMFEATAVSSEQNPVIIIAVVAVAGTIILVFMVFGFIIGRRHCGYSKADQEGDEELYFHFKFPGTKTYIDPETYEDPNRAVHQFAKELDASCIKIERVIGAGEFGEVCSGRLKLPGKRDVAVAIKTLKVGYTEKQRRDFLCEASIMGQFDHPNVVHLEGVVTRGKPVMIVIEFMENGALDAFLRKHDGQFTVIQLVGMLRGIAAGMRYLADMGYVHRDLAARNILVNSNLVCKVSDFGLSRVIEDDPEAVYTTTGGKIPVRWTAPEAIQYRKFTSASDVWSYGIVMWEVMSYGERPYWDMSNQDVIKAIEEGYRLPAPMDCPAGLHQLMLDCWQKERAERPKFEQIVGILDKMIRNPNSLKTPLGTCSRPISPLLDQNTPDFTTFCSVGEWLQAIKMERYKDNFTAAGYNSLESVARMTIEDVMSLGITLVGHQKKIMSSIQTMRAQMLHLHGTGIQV

Structure (SMILES): COc1cc(Nc2nc(C)cc(-c3cnn4nc(OC)ccc34)n2)cc(C(F)(F)F)c1
- % of control [1]: 100%

- % of control [2]: 100%
Structure (SMILES): CCN(CC)CCCCNc1ncc2cc(-c3cc(OC)cc(OC)c3)c(NC(=O)NC(C)(C)C)nc2n1

Structure (SMILES): COCC(=O)NC/C=C/c1ccc2ncnc(Nc3ccc(Oc4ccc(C)nc4)c(C)c3)c2c1 [CP-724714]
- % of control [3]: 74%

Structure (SMILES): COc1cc(N(C)c2ccnc3ccc(C(F)(F)F)cc23)cc(OC)c1OC
- % binding [4]: 93%

Structure (SMILES): Nc1cnc(N2CCc3cc(S(=O)(=O)Nc4c(F)cc(Cl)cc4F)cc(N4CCCC4=O)c32)nc1 [TP-020n]
- % of control [5]: 99%

Structure (SMILES): O=C(NOC[C@H](O)CO)c1ccc(F)c(F)c1Nc1ccc(I)cc1F
- % of control [6]: 94%
